Test results reported in PubChem BioAssay AID1918938 (Molecular Pharmacology Branch, DTP, NCI, 2023).

Test system: 556581-035-R-J1-PDC complex spheroid viability
Test: Anticancer human tumor 556581-035-R-J1-PDC patient-derived ovarian carcinoma cell line growth inhibition
Conditions: for IC50: curve of first compound; for viability, T/C: stronger effect = lower value
Description: Multicellular complex tumor spheroid response to LSD1 Inhibitor Iadademstat in combination with a variety of drugs and investigational agents in selected tumor cell lines
The current study was undertaken to assess response to LSD1 inhibitors in combination with standard-of-care drugs and investigational agents in solid tumor complex spheroid models as well as in the K-562 leukemia. Complex spheroids include a stromal component modeled by human endothelial cells (HUVEC) and fibroblasts modeled by human mesenchymal stem cells (MSCs). The concentration ranges selected for each drug and investigational agent were based upon clinically achievable concentrations if the clinical Cmax of the agent was known.
Compounds. The drugs and investigational agents used in this study are listed on Table 1. All of the agents used, including staurosporine (NSC755774) and gemcitabine (NSC613327), were obtained from the Developmental Therapeutics Program, NCI. FDA-approved anticancer drugs are available from the NCI at http://dtp.nci.nih.gov/branches/dscb/oncology_drugset_explanation.html. Drugs and investigational agents were >95% pure by proton nuclear magnetic resonance (NMR) and liquid chromatography/mass spectrometry (LC/MS). Stock solutions were prepared at 400x in DMSO, stored at -70 degrees C, and diluted in fresh medium prior to their use. The final concentration of DMSO in cell culture wells never exceeded 0.25% (v/v). The FDA-approved anticancer drug set is available from the Developmental Therapeutics Program at https://dtp.cancer.gov/organization/dscb/obtaining/available_plates.htm. All drugs and investigational agents were tested over a range starting from a high concentration at or near the clinical Cmax and decreasing in half-log increments. If the clinical Cmax for an agent had not been determined, the highest concentration tested was 10 microM.
Cell Lines. The patient-derived cancer cell (PDC) lines: 292921-168-R-J2-PDC, K24384-001-R-PDC, and 521955-158-R2-J5-PDC pancreatic carcinomas, 556581-035-R-J1 ovarian carcinoma, 324938-238-R-J1-PDC, 855422-203-R-J1-PDC and 883617-216-R-J1-PDC urothelial bladder carcinomas, 743489-274-T-PDC renal cell carcinoma, 138582-R-J1 Merkel cell tumor, K60290-347-R-J1 and K57222-313-R-J1-PDC glioblastomas, 653999-131-R-J2-PDC, LG0703-F948-PDC, and 349418-098-R-PDC non-small cell lung carcinomas, 885512-296-R-J2-PDC, 171881-019-R-J1-PDC breast carcinomas and 186277-243-T-J2-PDC and 233499-124-R-J2-PDC colon carcinomas were obtained from the NCI Patient-Derived Models Repository (PDMR, https://pdmr.cancer.gov). The established cell lines NCI/ADR-RES (RRID:CVCL_14520 and OVCAR-5 (RRID:CVCL_1628) ovarian carcinomas, 786-O (RRID:CVCL_1051) and A498 (RRID:CVCL_A498) renal cell carcinoma, NCI-H211 (ATCC, cat. CRL-5824; RRID:CVCL_1529), NCI-H196 (ATCC, cat. CRL-5823, RRID:CVCL_1509), SW 1271 (ATCC, cat. CRL-2177, RRID:CVCL_1716) and NCI-H1876 (ATCC, cat. CRL-5902, RRID:CVCL_1503) small cell lung carcinomas, MDA-MB-231 (RRID:CVCL_0062) and MDA-MB-468 (RRID:CVCL_0419)breast carcinomas (10-12). Pooled donor human umbilical vein endothelial cells (HUVEC, Lonza, cat. CC-2519) and human mesenchymal stem cells (hMSC, Lonza, cat. PT-2501) were purchased from Lonza (Walkersville, MD).
Cell Culture. All cells were maintained in an incubator at 37 degrees C and 5% CO2 with 95% humidity. The PDC lines were cultured according to standard operating procedures established by the NCI PDMR (https://pdmr.cancer.gov). Briefly all PDCs were thawed and cultured in Matrigel-coated flasks prepared with a working solution of 1X Ham's F-12 nutrient mix, without supplementation (Invitrogen, Waltham, MA, cat. 11765054), 100 U/mL penicillin-streptomycin (Invitrogen, cat. 15140122), and 2.5% Matrigel (Corning Inc., Corning, NY, cat. 354248) for the first three passages. […]

[1] = second compound 0.1 µM, first compound 0.000949 µM
[2] = second compound 0.1 µM, first compound 0.003 µM
[3] = second compound 0.1 µM, first compound 0.00949 µM
[4] = second compound 0.1 µM, first compound 0.03 µM
[5] = second compound 0.1 µM, first compound 0.0949 µM
[6] = second compound 0.1 µM, first compound 0.3 µM
[7] = second compound 0.316 µM, first compound 0.000949 µM
[8] = second compound 0.316 µM, first compound 0.003 µM
[9] = second compound 0.316 µM, first compound 0.00949 µM
[10] = second compound 0.316 µM, first compound 0.03 µM
[11] = second compound 0.316 µM, first compound 0.0949 µM
[12] = second compound 0.316 µM, first compound 0.3 µM
[13] = second compound 1 µM, first compound 0.000949 µM
[14] = second compound 1 µM, first compound 0.003 µM
[15] = second compound 1 µM, first compound 0.00949 µM
[16] = second compound 1 µM, first compound 0.03 µM
[17] = second compound 1 µM, first compound 0.0949 µM
[18] = second compound 1 µM, first compound 0.3 µM
[19] = second compound 3.16 µM, first compound 0.000949 µM
[20] = second compound 3.16 µM, first compound 0.003 µM
[21] = second compound 3.16 µM, first compound 0.00949 µM
[22] = second compound 3.16 µM, first compound 0.03 µM
[23] = second compound 3.16 µM, first compound 0.0949 µM
[24] = second compound 3.16 µM, first compound 0.3 µM
[25] = second compound 10 µM, first compound 0.000949 µM
[26] = second compound 10 µM, first compound 0.003 µM
[27] = second compound 10 µM, first compound 0.00949 µM
[28] = second compound 10 µM, first compound 0.03 µM
[29] = second compound 10 µM, first compound 0.0949 µM
[30] = second compound 10 µM, first compound 0.3 µM
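Also: spheroids exposed to agents for seven days.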
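For viability, T/C in this document: 100% = DMSO vehicle control wells.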

SMILES: CCc1c2c(nc3ccc(O)cc13)-c1cc3c(c(=O)n1C2)COC(=O)[C@]3(O)CC + NC1CC1c1ccc(-c2cccc(O)c2)cc1
- IC50 (second compound 0.1 µM): < 0.949 nM
- IC50 (second compound 0.316 µM): < 0.949 nM
- IC50 (second compound 1 µM): < 0.949 nM
- IC50 (second compound 3.16 µM): < 0.949 nM
- IC50 (second compound 10 µM): < 0.949 nM
- viability, T/C [1]: 14.6%
- viability, T/C [2]: 11%
- viability, T/C [3]: 0.89%
- viability, T/C [4]: 0.24%
- viability, T/C [5]: 0.2%
- viability, T/C [6]: 0.32%
- viability, T/C [7]: 15.4%
- viability, T/C [8]: 11.4%
- viability, T/C [9]: 0.92%
- viability, T/C [10]: 0.23%
- viability, T/C [11]: 0.17%
- viability, T/C [12]: 0.28%
- viability, T/C [13]: 15.4%
- viability, T/C [14]: 12.1%
- viability, T/C [15]: 1.74%
- viability, T/C [16]: 0.23%
- viability, T/C [17]: 0.19%
- viability, T/C [18]: 0.27%
- viability, T/C [19]: 13.8%
- viability, T/C [20]: 11.7%
- viability, T/C [21]: 1.62%
- viability, T/C [22]: 0.26%
- viability, T/C [23]: 0.27%
- viability, T/C [24]: 0.73%
- viability, T/C [25]: 14.4%
- viability, T/C [26]: 10.7%
- viability, T/C [27]: 1.64%
- viability, T/C [28]: 0.89%
- viability, T/C [29]: 0.3%
- viability, T/C [30]: 0.37%

SMILES: Nc1ccn(C2OC(CO)C(O)C2(F)F)c(=O)n1 (stereo not given) + NC1CC1c1ccc(-c2cccc(O)c2)cc1
- IC50 (second compound 0.1 µM): 1.32 nM
- IC50 (second compound 0.316 µM): 1.4 nM
- IC50 (second compound 1 µM): 1.94 nM
- IC50 (second compound 3.16 µM): 1.75 nM
- IC50 (second compound 10 µM): 1.83 nM
- viability, T/C [1]: 58.8%
- viability, T/C [2]: 28.2%
- viability, T/C [3]: 22.4%
- viability, T/C [4]: 26.8%
- viability, T/C [5]: 29.3%
- viability, T/C [6]: 27%
- viability, T/C [7]: 60.1%
- viability, T/C [8]: 30.7%
- viability, T/C [9]: 24.3%
- viability, T/C [10]: 25%
- viability, T/C [11]: 29.3%
- viability, T/C [12]: 27.1%
- viability, T/C [13]: 74%
- viability, T/C [14]: 36.5%
- viability, T/C [15]: 24.2%
- viability, T/C [16]: 25.4%
- viability, T/C [17]: 29.9%
- viability, T/C [18]: 22.9%
- viability, T/C [19]: 71%
- viability, T/C [20]: 31.3%
- viability, T/C [21]: 28.9%
- viability, T/C [22]: 26.5%
- viability, T/C [23]: 28.5%
- viability, T/C [24]: 29%
- viability, T/C [25]: 67.2%
- viability, T/C [26]: 37.3%
- viability, T/C [27]: 34.1%
- viability, T/C [28]: 29.8%
- viability, T/C [29]: 37.1%
- viability, T/C [30]: 34.1%

SMILES: O=C(c1cc(Cc2n[nH]c(=O)c3ccccc23)ccc1F)N1CCN(C(=O)C2CC2)CC1 + NC1CC1c1ccc(-c2cccc(O)c2)cc1
- IC50 (second compound 0.1 µM): > 10000 nM
- IC50 (second compound 0.316 µM): > 10000 nM
- IC50 (second compound 1 µM): > 10000 nM
- IC50 (second compound 3.16 µM): > 10000 nM
- IC50 (second compound 10 µM): 9280 nM
- viability, T/C (second compound 0.1 µM, first compound 0.0316 µM): 86.1%
- viability, T/C (second compound 0.1 µM, first compound 0.1 µM): 86.2%
- viability, T/C (second compound 0.1 µM, first compound 0.316 µM): 93.4%
- viability, T/C (second compound 0.1 µM, first compound 1 µM): 76.6%
- viability, T/C (second compound 0.1 µM, first compound 3.16 µM): 77.2%
- viability, T/C (second compound 0.1 µM, first compound 10 µM): 63.4%
- viability, T/C (second compound 0.316 µM, first compound 0.0316 µM): 92.3%
- viability, T/C (second compound 0.316 µM, first compound 0.1 µM): 83.2%
- viability, T/C (second compound 0.316 µM, first compound 0.316 µM): 74.8%
- viability, T/C (second compound 0.316 µM, first compound 1 µM): 90.7%
- viability, T/C (second compound 0.316 µM, first compound 3.16 µM): 72.2%
- viability, T/C (second compound 0.316 µM, first compound 10 µM): 67.5%
- viability, T/C (second compound 1 µM, first compound 0.0316 µM): 86.8%
- viability, T/C (second compound 1 µM, first compound 0.1 µM): 83.5%
- viability, T/C (second compound 1 µM, first compound 0.316 µM): 79.3%
- viability, T/C (second compound 1 µM, first compound 1 µM): 69.9%
- viability, T/C (second compound 1 µM, first compound 3.16 µM): 61.5%
- viability, T/C (second compound 1 µM, first compound 10 µM): 58.8%
- viability, T/C (second compound 3.16 µM, first compound 0.0316 µM): 84.4%
- viability, T/C (second compound 3.16 µM, first compound 0.1 µM): 80.2%
- viability, T/C (second compound 3.16 µM, first compound 0.316 µM): 84.9%
- viability, T/C (second compound 3.16 µM, first compound 1 µM): 79.5%
- viability, T/C (second compound 3.16 µM, first compound 3.16 µM): 61%
- viability, T/C (second compound 3.16 µM, first compound 10 µM): 57.4%
- viability, T/C (second compound 10 µM, first compound 0.0316 µM): 79.1%
- viability, T/C (second compound 10 µM, first compound 0.1 µM): 76%
- viability, T/C (second compound 10 µM, first compound 0.316 µM): 79.2%
- viability, T/C (second compound 10 µM, first compound 1 µM): 70.6%
- viability, T/C (second compound 10 µM, first compound 3.16 µM): 61.6%
- viability, T/C (second compound 10 µM, first compound 10 µM): 49.4%
